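Tested at 5 concentrations; 48 h exposure; 96-well plates; endpoints linearly interpolated, else capped at highest concentration. GI50 marks 50% less growth. The concentration for full growth arrest is given as TGI.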
What was measured:
Assay in all cases: NCI-60 cell line screen, 48 h; in the data active = GI50 below about 0.43 µM; inactive = the rest
OVCAR-5 ovarian = test system: OVCAR-5 ovarian
DU-145 prostate = test system: DU-145 prostate
SNB-75 CNS = test system: SNB-75 CNS
MDA-MB-231 breast = test system: MDA-MB-231 breast
MCF7 breast = test system: MCF7 breast
UACC-257 melanoma = test system: UACC-257 melanoma
ACHN renal = test system: ACHN renal
786-0 renal = test system: 786-0 renal
CAKI-1 renal = test system: CAKI-1 renal
NCI-H226 lung = test system: NCI-H226 lung
RPMI-8226 leukemia = test system: RPMI-8226 leukemia
HL-60(TB) leukemia = test system: HL-60(TB) leukemia
MALME-3M melanoma = test system: MALME-3M melanoma
K-562 leukemia = test system: K-562 leukemia
HOP-62 NSCLC = test system: HOP-62 NSCLC
SK-MEL-5 melanoma = test system: SK-MEL-5 melanoma
A498 renal = test system: A498 renal
M14 melanoma = test system: M14 melanoma
COLO 205 colon = test system: COLO 205 colon
HCT-15 colon = test system: HCT-15 colon
TK-10 renal = test system: TK-10 renal
IGROV1 ovarian = test system: IGROV1 ovarian
OVCAR-4 ovarian = test system: OVCAR-4 ovarian
A549 NSCLC = test system: A549 NSCLC
PC-3 prostate = test system: PC-3 prostate
UACC-62 melanoma = test system: UACC-62 melanoma
SN12C renal = test system: SN12C renal
SK-OV-3 ovarian = test system: SK-OV-3 ovarian
T-47D breast = test system: T-47D breast
NCI-H522 lung = test system: NCI-H522 lung
HS 578T breast = test system: HS 578T breast
RXF 393 renal = test system: RXF 393 renal
OVCAR-8 ovarian = test system: OVCAR-8 ovarian
EKVX NSCLC = test system: EKVX NSCLC
OVCAR-3 ovarian = test system: OVCAR-3 ovarian
HOP-92 NSCLC = test system: HOP-92 NSCLC
SF-295 CNS = test system: SF-295 CNS
SF-539 CNS = test system: SF-539 CNS
KM12 colon = test system: KM12 colon
SNB-19 CNS = test system: SNB-19 CNS
NCI/ADR-RES ovarian = test system: NCI/ADR-RES ovarian
MDA-MB-435 = test system: MDA-MB-435
MOLT-4 leukemia = test system: MOLT-4 leukemia
HT29 colon = test system: HT29 colon
BT-549 breast = test system: BT-549 breast
HCC-2998 colon = test system: HCC-2998 colon
NCI-H460 lung = test system: NCI-H460 lung
SR leukemia = test system: SR leukemia
NCI-H23 lung = test system: NCI-H23 lung
LOX IMVI melanoma = test system: LOX IMVI melanoma
SW-620 colon = test system: SW-620 colon
UO-31 renal = test system: UO-31 renal
SK-MEL-2 melanoma = test system: SK-MEL-2 melanoma
U251 CNS = test system: U251 CNS
SF-268 CNS = test system: SF-268 CNS
SK-MEL-28 melanoma = test system: SK-MEL-28 melanoma
HCT-116 colon = test system: HCT-116 colon

Cc1cc(I)cc(CNCCN2CCOCC2)c1O
inactive: GI50 (OVCAR-5 ovarian) 59.8 µM | GI50 (DU-145 prostate) 26.3 µM | GI50 (SNB-75 CNS) 75.6 µM | GI50 (MDA-MB-231 breast) > 100 µM | GI50 (MCF7 breast) > 100 µM | GI50 (UACC-257 melanoma) > 100 µM | GI50 (ACHN renal) > 100 µM | GI50 (786-0 renal) 36.9 µM | GI50 (CAKI-1 renal) > 100 µM | GI50 (NCI-H226 lung) > 100 µM | GI50 (RPMI-8226 leukemia) > 100 µM | GI50 (HL-60(TB) leukemia) > 100 µM | GI50 (MALME-3M melanoma) > 100 µM | GI50 (K-562 leukemia) 87.5 µM | GI50 (HOP-62 NSCLC) 29.4 µM | GI50 (SK-MEL-5 melanoma) 67.1 µM | GI50 (A498 renal) > 100 µM | GI50 (M14 melanoma) 26.9 µM | GI50 (COLO 205 colon) > 100 µM | GI50 (HCT-15 colon) > 100 µM | GI50 (TK-10 renal) > 100 µM | GI50 (IGROV1 ovarian) 67 µM | GI50 (OVCAR-4 ovarian) > 100 µM | GI50 (A549 NSCLC) > 100 µM | GI50 (PC-3 prostate) > 100 µM | GI50 (UACC-62 melanoma) > 100 µM | GI50 (SN12C renal) > 100 µM | GI50 (SK-OV-3 ovarian) > 100 µM | GI50 (T-47D breast) 84.8 µM | GI50 (NCI-H522 lung) 92.8 µM | GI50 (HS 578T breast) > 100 µM | GI50 (RXF 393 renal) 48.5 µM | GI50 (OVCAR-8 ovarian) > 100 µM | GI50 (EKVX NSCLC) 24.3 µM | GI50 (OVCAR-3 ovarian) > 100 µM | GI50 (HOP-92 NSCLC) 59.8 µM | GI50 (SF-295 CNS) 36 µM | GI50 (SF-539 CNS) 37.2 µM | GI50 (KM12 colon) 86.8 µM | GI50 (SNB-19 CNS) > 100 µM | GI50 (NCI/ADR-RES ovarian) 12.5 µM | GI50 (MDA-MB-435) > 100 µM | GI50 (MOLT-4 leukemia) > 100 µM | GI50 (HT29 colon) > 100 µM | GI50 (BT-549 breast) 15.4 µM | GI50 (HCC-2998 colon) 43.9 µM | GI50 (NCI-H460 lung) 52.8 µM | GI50 (SR leukemia) 90.2 µM | GI50 (NCI-H23 lung) 27.5 µM | GI50 (LOX IMVI melanoma) > 100 µM | GI50 (SW-620 colon) > 100 µM | GI50 (UO-31 renal) 67.8 µM | GI50 (SK-MEL-2 melanoma) > 100 µM | GI50 (U251 CNS) > 100 µM | GI50 (SF-268 CNS) 93.2 µM | GI50 (SK-MEL-28 melanoma) > 100 µM | GI50 (HCT-116 colon) 37.2 µM
61.3 µM: TGI (BT-549 breast)
> 100 µM: TGI (OVCAR-5 ovarian) | TGI (DU-145 prostate) | TGI (SNB-75 CNS) | TGI (MDA-MB-231 breast) | TGI (MCF7 breast) | TGI (UACC-257 melanoma) | TGI (ACHN renal) | TGI (786-0 renal) | TGI (CAKI-1 renal) | TGI (NCI-H226 lung) | TGI (RPMI-8226 leukemia) | TGI (HL-60(TB) leukemia) | TGI (MALME-3M melanoma) | TGI (K-562 leukemia) | TGI (HOP-62 NSCLC) | TGI (SK-MEL-5 melanoma) | TGI (A498 renal) | TGI (M14 melanoma) | TGI (COLO 205 colon) | TGI (HCT-15 colon) | TGI (TK-10 renal) | TGI (IGROV1 ovarian) | TGI (OVCAR-4 ovarian) | TGI (A549 NSCLC) | TGI (PC-3 prostate) | TGI (UACC-62 melanoma) | TGI (SN12C renal) | TGI (SK-OV-3 ovarian) | TGI (T-47D breast) | TGI (NCI-H522 lung) | TGI (HS 578T breast) | TGI (RXF 393 renal) | TGI (OVCAR-8 ovarian) | TGI (EKVX NSCLC) | TGI (OVCAR-3 ovarian) | TGI (HOP-92 NSCLC) | TGI (SF-295 CNS) | TGI (SF-539 CNS) | TGI (KM12 colon) | TGI (SNB-19 CNS) | TGI (NCI/ADR-RES ovarian) | TGI (MDA-MB-435) | TGI (MOLT-4 leukemia) | TGI (HT29 colon) | TGI (HCC-2998 colon) | TGI (NCI-H460 lung) | TGI (SR leukemia) | TGI (NCI-H23 lung) | TGI (LOX IMVI melanoma) | TGI (SW-620 colon) | TGI (UO-31 renal) | TGI (SK-MEL-2 melanoma) | TGI (U251 CNS) | TGI (SF-268 CNS) | TGI (SK-MEL-28 melanoma) | TGI (HCT-116 colon)

Source: PubChem BioAssay (NCI)
